In patent US4966895A, “Cyclic monophosphates of purine and pyrimidine acyclonucleosides as anti-retroviral agents” (Merck & Co. Inc., priority 1989, dated 1990):
Values after ≈ are worked out from the molar mass of the structure shown. Structures can show the parent of a compound that is named as a salt. Where two headings read alike, the source gives them in different places.

What was measured:
visna virus = assay: Inhibition of visna virus-induced CPE in sheep choroid plexus (SCP) cells; assay type: cell-based, strain 1514; settings: Visna-maedi virus, 144 h
Text: Activity of 9-[(2-hydroxy-1,3,2-dioxophosphorian-5-yl)oxymethyl]guanine P-oxide, sodium salt (2'-NOR-cGMP) against visna virus in sheep choroid plexus cells.
Visna virus, strain 1514, is a lentivirus of the retrovirus family. It was chosen because of its genetic and biologic similarity to the human immunodeficiency viruses (HIV). Since visna virus and the human immunodeficiency virus are closely related retroviruses, activity against the visna virus by a compound is felt to predict activity against the human immunodeficiency virus by the same compound. (See Visna Virus as an In Vitro Model for Human Immunodeficiency Virus and Inhibition by Ribavirin, Phosphonoformate, and 2',3'-Dideoxy-nucleosides, Frank K. B.; McKernan P.A.; Smith R.A.; Smee D.F.; Antimicrobiol Agents and Chemotherapy, Sept. 1987; Vol. 31, No. 9 Pg 1369-1374.) The virus has been cultivated and plaque purified in SCP cells fed with MEM, HEPES, gentamicin and 2% lamb serum.
(§1) Visna virus is cultivated in low passage cells derived from the choroid plexus (SCP) of a newborn lamb. The choroid plexus is dissected from the newborn lamb, minced and diluted in minimum essential medium (MEM), containing 20% fetal bovine serum (FBS), 1 mM N 2-hydroxyethylpiperazine-N'-2-ethane sulfonic acid (HEPES), 50 μg/ml gentamicin at PH 7.4. After initial cultivation, cells are dispersed by addition of trypsin (0.25%) plus EDTA, split 1:2 and added to MEM+10% FBS, HEPES, gentamicin and reincubated. At approximately passage 4 there are adequate numbers of cells for freezing and storage in liquid nitrogen.
(§2) For antiviral assays, 0.2 ml SCP cells (0.7×10^5 cells/ml) are inoculated into wells of 96 well microtiter plates and incubated for 18-24 hours.
(§3) The medium is decanted from the cells, and drug and virus(~320-50% infectious doses) are added within 15 minutes. Each concentration of drug (serial two-fold or half-log dilutions) are added in 0.1 ml volumes to each of 6 wells. Visna virus is added (0.1 ml) to 4 wells for observation of virus inhibitory activity.
(§4) Virus free test medium is added to two wells (0.1 mL) for observation of drug cytotoxicity. Experimental controls include: cell control (cells with 0.2 mL medium) and virus controls (cells with 0.1 mL virus and 0.1 mL medium). The degree of CPE inhibition and drug cytotoxicity in comparison with virus and cell controls is observed microscopically after 6 days of incubation at 37° C. Fresh medium and drug dilutions are placed on the cells after 3 days of incubation. Virus CPE and drug cytotoxicity are scored on a 0-4 basis with 4 representing total cell destruction. The lowest concentration of drug producing ≥50% inhibition of virus-induced CPE is considered the minimum inhibitory concentration (MIC). The lowest concentration of drug producing a score of […] or visable alteration in cell morphology will be considered the minimum cytotoxic concentration (MCC). Using the observed percent CPE, the MIC will be calculated by linear regression analysis.

in vitro = assay type: cell-based; settings: sheep, choroid plexus cells
Description: as §1, §2, §3, §4

[1] = mean of individual values, ≥50% inhibition of virus-induced CPE, 6 days, 37° C, sheep choroid plexus cells, read-out: MIC (minimum inhibitory concentration), Mean
[2] = MCC (minimum cytotoxic concentration), Range
[3] = read-out: MIC (minimum inhibitory concentration), Mean

`Nc1nc2c(ncn2COC2COP(=O)(O)OC2)c(=O)[nH]1` (centres unmarked) [2'-nor-cGMP, 9-[(2-hydroxy-1,3,2-dioxophosphorian-5-yl)oxymethyl]guanine P-oxide, sodium salt] gave an MIC (visna virus; [1]) of 24 µg/mL and an MCC at 144 h (in vitro; [2]) of 32 to 100 µg/mL.
`Cc1cn([C@H]2C[C@H](N=[N+]=[N-])[C@@H](CO)O2)c(=O)[nH]c1=O` [Azidothymidine] gave an MIC (visna virus; read-out: MIC (minimum inhibitory concentration), Individual Values) of 10 µg/mL (≈ 37.4 µM), an MIC (visna virus; [3]) of 10 µg/mL (≈ 37.4 µM) and an MCC at 144 h (in vitro; MCC (minimum cytotoxic concentration), Individual Values) of 40 µg/mL. It also gave an MCC at 144 h (in vitro; [2]) of 40 µg/mL.
`O=C(O)P(=O)(O)O` [Phosphonoformate] showed an MIC (visna virus; [3]) of 57.4 µg/mL (≈ 456 µM), an MCC at 144 h (in vitro; range of individual values, 6 days, 37° C, virus free, read-out: MCC (minimum cytotoxic concentration), Range) of 100 µg/mL and an MCC at 144 h (in vitro; lowest concentration producing a score of ≤1 or visible alteration in cell morphology, 6 days, 37° C, virus free, read-out: MCC (minimum cytotoxic concentration), Individual Values) of 100 µg/mL.
With `NC(=O)c1ncn([C@@H]2O[C@H](CO)[C@@H](O)[C@H]2O)n1` [Virazole] the MIC (visna virus; [1]) was 175 µg/mL (≈ 718 µM) and the MCC at 144 h (in vitro; [2]) was 100 to 320 µg/mL.
